Results taken from publication PMC11612460, “Development of a novel gut microphysiological system that facilitates assessment of drug absorption kinetics in gut” (Scientific Reports, 2024).

What was measured:
[1] = in vivo, human; cited from earlier work
[2] = tested on: hiSIECs; details: ref 20 (Shirai et al.); cited from earlier work
[3] = tested on: hiSIECs monolayers in gut MPS/Emulate; experiment: Permeability / donor concentration of test drugs using gut MPS/Emulate (fluidic conditions)
Description: F-hiSIEC was thawed and suspended in seeding medium according to the manufacture’s protocol. The suspension of F-hiSIEC (6.0×10^6 cells/mL, 35-40 μL/chip) was transferred to the chip and incubated at 37 °C overnight. The cells were then cultured in maintenance medium under perfusion culture conditions at a flow rate of 15 μL/hr from day1 to day 4 and 30 μL/h from day 5 to day9. Gravity wash and prime cycle were performed when necessary. Additionally, the membrane strain rate was set to 2% at a frequency of 0.15 Hz from day 3 to day 5 and to 10% from day 6 to day 9. The permeability of the test drugs was assessed on day 9.
The test drugs were added to the culture medium. The top and bottom channels of the chip were perfused with the media at a flow rate of 30 μL/h. […] Inhibitors (10μM Ketoconazole, 5μM PSC833 and 5μM Ko143) were added as a cocktail to both the channels. Media were collected from the outlet chamber at 6, 24, 30, and 48 h.

[4] = tested on: hiSIECs monolayers in gut MPS/Fluid3D-X; experiment: in vitro; details: for effect of inhibitor cocktail on apical-to-basal transport: ketoconazole 10 µM
Description: (§1) The seeding medium and culture medium of hiSIECs for LLI and ALI were obtained from FUJIFILM Corporation. hiSIECs were cultured according to the manufacturer’s instructions. Briefly, Fluid3D-X® devices were coated with Corning Matrigel GFR Basement Membrane Matrix (Corning) on the day before seeding the cells. hiSIECs were seeded onto a Fluid3D-X® device at 5.3 × 10^5 cells/MPS and incubated for 5.5 h. The seeding medium was added to the device, and cell culture was started in flow for 11 days at 20 pps 1/4 (3.8 µL/min). After one day, the seeding medium was replaced with LLI culture medium, and the medium was changed every two or three days. ALI culture was performed using the same method as the LLI culture, but the apical channel medium was removed to expose the cells to air on day 4. On day 11 after seeding, the gut MPS was used for the assay.
(§2) Eight gut chips were divided into two groups: with and without inhibitors. […] Because all steps were performed under static conditions, 200 µL of buffer was transferred from the outlet to the inlet by a micropipette before collection of each sample. Serial sampling (150 µL) was performed at following time points (0, 30, 60, 90, and 120 min) from both the donor and acceptor sides. Equal volumes of fresh buffer were added after the sample collection. At the end of the experiment (120 min), the cell lysates were collected. The concentrations of drugs and/or metabolites in the transport buffer and cells were measured by LC-MS/MS. To observe the inhibitory effects of the inhibitor on compound transport, transport experiments were performed in the presence of an inhibitor cocktail containing ketoconazole (10 µM), PSC833 (5 µM), and Ko143 (5 µM) to inhibit CYP3A4, P-gp, and BCRP.
(§3) The permeability, efflux ratio, and Fg parameters were derived as follows:
(§4) The apparent permeability coefficient (Papp, cm/s) was calculated using Eq. (1):1 [drawing 1]
(§5) where dQ/dt, MPS surface area, and C0 represent the amount of the test compound transported to the receiver compartment per unit time when the linearity of its time-dependent transport was
(§6) apparently maintained, the culture area of the gut MPS/Fluid3D-X (0.64 cm^2), and the
(§7) initial concentration of the test compound in the donor compartment.2 [drawing 2]
(§8) where Papp, basal to apical and Papp, apical to basal represent the apparent permeability coefficient in the
(§9) basolateral-to-apical and apical-to-basolateral directions, respectively.
(§10) The intestinal availability (Fg) of CYP3A substrates was calculated based on a previous report[35] using the following equation:3 [drawing 3]
(§11) where CLapical to basal (+ inhibitor) and CLapical to basal (-inhibitor) represent the transcellular transport clearance in the apical-to-basolateral direction in the presence or absence of the inhibitor, respectively.
(§12) The specimens were deproteinated with 3-times volumes of acetonitrile and centrifuged to obtain supernatants. For quantification of the drug concentration on the donor side, the specimens were further diluted 20 times with acetonitrile. Two microliters of each sample was subjected to LC–MS/MS analysis. An AB SCIEX QTRAP 5500 + mass spectrometer (Applied Biosystems, Foster City, CA) equipped with a Nexera X2 LC system (Shimadzu, Kyoto, Japan), operated in electron spray ionization mode, was used for the analysis. Chromatographic separation was performed at 40 °C on a GL Sciences Inc instrument. InertSustain C18 HP analytical column (2.1 I.D. × 100 mm, 3 μm) at a flow rate of 0.5 ml/min using the gradient method. The mobile phase consisted of 2 mmol/L ammonium acetate and 0.1% formic acid in water (mobile phase A) and 0.1% formic acid in acetonitrile (mobile phase B). […] The ion spray voltage and temperature were set at 4500 V and 600 °C, respectively.

[5] = in vitro; details: human
Description: as §1, §2, §3, §4, §5, §6, §7, §8, §9, §10, §11, §12

[6] = Papp, apical to basal, inhibitor (+)
[7] = Papp, apical to basal, inhibitor (-)
[8] = Papp, basal to apical, inhibitor (-), no inhibitor, mean ± SD, n = 4, deuterium-labeled compound dosed to basal side, apical pH 6.5, basal pH 7.4
[9] = with ketoconazole 10 µM, PSC833 5 µM, Ko143 5 µM (both sides)

Compound	effect of inhibitor cocktail on apical-to-basal transport ([4]; PSC833 5 µM, Ko143 5 µM)	efflux ratio at 120 min [5]	Papp at 120 min [5, 6] [×10⁻⁶ cm/s]	Papp at 120 min [5, 7] [×10⁻⁶ cm/s]	Papp at 120 min [5, 8] [×10⁻⁶ cm/s]	Papp at 120 min [5, 9] [×10⁻⁶ cm/s]	efflux ratio at 120 min [5, 9]	other results
Cc1ncc2n1-c1ccc(Cl)cc1C(c1ccccc1F)=NC2 [Midazolam]	increased with the addition of inhibitors	–	–	–	–	–	–	Fg, clinical value [1]: 0.55; Fg reported by Shirai et al. [2]: 0.74; donor concentration relative to spiked concentration ([3]; presumably adsorption to the device): almost half of the spiked concentration; fraction that escaped from the gut metabolism (Fg) ([4]; from ratio of apical-to-basal transport clearance with and without inhibitor): 0.64; Papp at 120 min ([5]; Papp, apical to basal, inhibitor (+), inhibitor cocktail ketoconazole 10 µM, PSC833 5 µM, Ko143 5 µM, mean ± SD, n = 3): 14.4 ± 1.9 ×10⁻⁶ cm/s; Papp at 120 min ([5]; Papp, apical to basal, inhibitor (-), no inhibitor, mean ± SD, n = 4, apical pH 6.5, basal pH 7.4): 11.2 ± 0.6 ×10⁻⁶ cm/s
O=C(O)c1cc(/N=N/c2ccc(S(=O)(=O)Nc3ccccn3)cc2)ccc1O [Sulfasalazine]	–	12.7 ± 2.3	0.557 ± 0.095	0.505 ± 0.072	6.44 ± 0.45	1.1 ± 0.29	1.97 ± 0.76	decrease in intrinsic clearance (directional transport) in the presence of transporter inhibitors ([4]; inhibitor cocktail ketoconazole 10 µM, PSC833 5 µM, Ko143 5 µM): 85%
Cc1cc(=O)n(-c2ccccc2)n1C [Antipyrine]	not affected by the inhibitors	–	18.5 ± 1.2	20.1 ± 2.7	–	–	–	efflux ratio at 120 min ([5]; Efflux ratio (ER), inhibitor (+)): 0.78 ± 0.076; efflux ratio at 120 min ([5]; Efflux ratio (ER), inhibitor (-)): 0.656 ± 0.12; Papp at 120 min ([5]; Papp, basal to apical, inhibitor (+)): 14.4 ± 0.7 ×10⁻⁶ cm/s; Papp at 120 min ([5]; Papp, basal to apical, inhibitor (-)): 13.2 ± 1.1 ×10⁻⁶ cm/s
OCc1ncc2n1-c1ccc(Cl)cc1C(c1ccccc1F)=NC2 [1-hydroxymidazolam]	–	–	–	–	–	–	–	secretion of metabolite to apical versus basal channel side ([4]; midazolam dosed apical): preferentially secreted to the apical channel side; formation of metabolite 1-hydroxymidazolam from midazolam in presence of inhibitors ([4]; midazolam dosed apical, inhibitor cocktail): decreased formation
C=C[C@H]1C[N@@]2CC[C@H]1C[C@@H]2[C@@H](O)c1ccnc2ccc(OC)cc12 [Quinidine]	–	2.02 ± 0.37	3.88 ± 1.12	2.15 ± 0.33	4.37 ± 0.15	4.37 ± 1.53	1.12 ± 0.63	effluent concentration as percent of the corresponding inlet concentrations ([3]; at 24 h): 82%; reduction of concentration in the effluent relative to original drug solution ([3]; within the first 6 h): 29%
